Earlier results in patent US20030198684A1 (priority 2002, published 2003).
Like-named read-outs stand apart in the source and are kept apart here.

Legend:
[1] = supplementation
[2] = in vivo
[3] = supplementation; remark: listed apart in the source
[4] = in vivo; remark: listed apart in the source
[5] = system: young female rats; settings: constant infusion
[6] = body builders
[7] = patients on dialysis, compared with placebo
[8] = 300 mg/wk for six weeks; TE: shoulders; ND: shoulders and chest
[9] = HIV-infected men, pharmacological doses
[10] = target: T1, aromatase (Homo sapiens, UniProt P11511); settings: compared with chrysin, AG and ANG
T1 sequence (P11511 1-503): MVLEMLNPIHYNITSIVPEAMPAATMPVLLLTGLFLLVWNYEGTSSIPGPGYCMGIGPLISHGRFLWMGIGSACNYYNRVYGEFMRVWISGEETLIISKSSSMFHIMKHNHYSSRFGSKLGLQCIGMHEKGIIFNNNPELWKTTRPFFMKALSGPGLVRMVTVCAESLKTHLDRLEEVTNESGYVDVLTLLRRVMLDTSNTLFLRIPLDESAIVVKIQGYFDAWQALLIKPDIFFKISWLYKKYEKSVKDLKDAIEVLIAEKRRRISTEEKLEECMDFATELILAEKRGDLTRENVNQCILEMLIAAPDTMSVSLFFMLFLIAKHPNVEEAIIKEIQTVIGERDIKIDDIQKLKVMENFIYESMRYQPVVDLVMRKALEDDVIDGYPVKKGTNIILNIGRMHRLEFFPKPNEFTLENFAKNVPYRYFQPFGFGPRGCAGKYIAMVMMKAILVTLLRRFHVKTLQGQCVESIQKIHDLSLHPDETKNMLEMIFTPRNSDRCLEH

[11] = for waking erection: Asian hypogonadal men; for sexual interest and activity, spontaneous erection: Caucasian hypogonadal men
[12] = system: prostate and seminal vesicle weights
[13] = system: levator ani muscles

## C[C@]12CC[C@H]3[C@@H](CCC4=C[C@@H](O)CC[C@@]43C)[C@@H]1CC[C@@H]2O [4-androstenediol]
[1]
  urine testosterone concentration relative to 4androstenedione: 10 fold
[2]
  human serum testosterone levels: produce elevations in human serum testosterone levels

## C[C@]12CCC(=O)C=C1CC[C@@H]1[C@@H]2CC[C@]2(C)C(=O)CC[C@@H]12 [4-androstenedione]
[3]
  serum testosterone: produced elevations in serum testosterone

## C[C@]12CC[C@H]3[C@@H](CCC4=CC(=O)CC[C@@H]43)[C@@H]1CC[C@@H]2O [nandrolone, 19-nor-testosterone]
[4]
  azoospermia: azoospermia (lack of sperm) associated with nandrolone use
[5]
  energy expenditure: increased energy expenditure
[6]
  decrease in HDL-choresterol and diastolic blood pressure: 25-27%
[7]
  lean body mass: increased significantly

## C[C@]12CC[C@H]3[C@@H](CCC4=CC(=O)CC[C@@]43C)[C@@H]1CC[C@@H]2O [testosterone]
[5]
  lipid deposition or heat production: did not have a significant effect
  proportion of protein in the body composition: increased

## CCCCCCCCCC(=O)O[C@H]1CC[C@H]2[C@@H]3CCC4=CC(=O)CC[C@@H]4[C@H]3CC[C@]12C [nandrolone decanoate, 19-nor-testosterone decanoate]
[8]
  body circumferences (of fifteen): significant increases
[9]
  total weight, lean body mass, body cell mass, muscle size, and strength: significant gains

## C[C@]12CC[C@H](O)CC1=CC[C@@H]1[C@@H]2CC[C@]2(C)C(=O)CC[C@@H]12 [DHEA, dehydro-epiandrosterone]
50 mg dose of DHEA
  plasma testosterone: restored plasma testosterone to levels similar to those observed in young women
50 mg or 200 mg DHEA
  delta 5-androstenediol: small increase
  plasma delta 4-androstenedione increase: significant and dose dependent
  plasma estrogens, particularly estradiol: significant and dose dependent increase
200 mg dose of DHEA
  plasma testosterone: important increase of plasma testosterone, slightly below the levels observed in normal men
Both doses of DHEA
  increase of plasma dihydrotestosterone levels: small at both doses

## COc1ccc(-c2coc3cc(O)cc(O)c3c2=O)cc1 [Biochanin A, 5,7-dihydroxy-4′-methoxyisoflavone]
[10]
  aromatase inhibition (in words): inhibited aromatase, but to a lesser degree

## CCCCCCC(=O)O[C@H]1CC[C@H]2[C@@H]3CCC4=CC(=O)CC[C@]4(C)[C@H]3CC[C@]12C [TE, testosterone enanthate]
[8]
  body circumferences (of fifteen): significant increases
[11]
  waking erection: increased waking erection
  sexual interest and activity, spontaneous erection: significant increases

## C[C@]12CC[C@H]3[C@@H](CC=C4C[C@@H](O)CC[C@@]43C)[C@@H]1CC[C@@H]2O [5-androstenediol]
[5]
  lipid deposition or heat production: did not have a significant effect
  proportion of protein in the body composition: increased

## C[C@@H]1CC2=CC(=O)CC[C@@H]2[C@H]2CC[C@]3(C)[C@@H](O)CC[C@H]3[C@@H]21 [MENT, 7α-methyl-19-nor-testosterone]
[12]
  androgenic potency relative to testosterone: four- to five-times more androgenic than testosterone
[11]
  waking erection: increased waking erection
  sexual interest and activity, spontaneous erection: significant increases
[13]
  anabolic potency relative to testosterone: ten-times as potent as testosterone
